In US7592009B2, “Polypeptide ligands for targeting cartilage and methods of use thereof” (Ecole Polytechnique Federale de Lausanne (EPFL), priority 2006, dated 2009):
Where no end group is shown, it is not given here.

T1: MMP-2 (Homo sapiens, UniProt P08253)
T1 sequence (P08253 110-660): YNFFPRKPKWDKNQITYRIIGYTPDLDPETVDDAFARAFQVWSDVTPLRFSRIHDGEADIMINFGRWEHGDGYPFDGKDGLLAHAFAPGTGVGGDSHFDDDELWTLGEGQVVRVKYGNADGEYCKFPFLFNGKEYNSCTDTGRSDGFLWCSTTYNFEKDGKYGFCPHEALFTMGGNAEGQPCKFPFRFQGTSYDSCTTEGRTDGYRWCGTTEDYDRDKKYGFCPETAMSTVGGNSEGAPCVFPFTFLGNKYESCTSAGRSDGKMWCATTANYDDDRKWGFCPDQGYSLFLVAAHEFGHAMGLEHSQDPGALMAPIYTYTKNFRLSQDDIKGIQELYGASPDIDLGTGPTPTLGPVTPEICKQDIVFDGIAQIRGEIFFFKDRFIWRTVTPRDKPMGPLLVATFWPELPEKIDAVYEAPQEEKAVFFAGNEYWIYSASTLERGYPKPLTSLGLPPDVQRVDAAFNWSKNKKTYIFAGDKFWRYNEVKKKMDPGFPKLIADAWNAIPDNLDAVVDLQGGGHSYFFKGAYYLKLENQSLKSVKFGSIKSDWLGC


What was measured:
articular cartilage = experiment: Competitive binding of free polypeptide or nanoparticles against phage clone C1-3 on articular cartilage; design: species or system bovine; details: for decrease of phage titers versus control without polypeptide: 10 μM polypeptide, FIG. 3
Protocol: Cartilage grafts were harvested with 8 and 4 mm biopsy cutters (two-sided surface 1 cm^2 and 0.25 cm^2). A slice with the intact articular surface was removed to expose the phages only to the cartilage matrix below the surface. Affinity selection was preformed in polystyrene 48-well plates, which were blocked for nonspecific adhesion with a blocking solution containing 1% BSA for 2 hours prior to screening. A total of 5 screening rounds was carried out. In the first round 10^13 and in subsequent rounds 10^12 phage virions per ml were exposed to the cartilage graft, washed with PBS/Tween 20 and eluted at low pH. While the first round was supposed to give a high yield at low stringency, subsequent rounds were carried out with increasing stringency to select stronger binders. Conditions were increased from 4 hours of binding at RT and washing with PBS/0.1% Tween to 30 minutes binding at 37° C. with 220 RPM, washing with PBS/1% Tween 20 and the cartilage surface decreased from 1 cm^2 to 0.25 cm^2 in round five. Eluted phage was amplified overnight in E. coli strain TG1 in 2×YT medium and purified by two times PEG/NaCl (2M, 25%) precipitation. In the first round of screening, negative screens against the intact articular surface as well as synovial fluid (50% diluted in PBS to lower viscosity) were carried out in order to eliminate phages binding to these targets. Quantitative titer counts were obtained by spot titering of 15 μl of phage/bacterial culture onto LB-agar/tetracyclin plates and are given in transducing units(TU)/ml. The polypeptide sequences of affinity selected phage specific to the articular cartilage matrix was determined by DNA sequencing (Microsynth AG, Balgach, Switzerland) using the sequencing primer 5′-CAT GTA CCG TAA CAC TGA G (SEQ ID NO:5). Binding specificity was determined by exposing selected phage clones (10^8 TU/ml) to articular cartilage (0.25 cm^2) with and without synovial fluid, to synovial membrane (3×4 mm, 0.24 cm^2) and to polystyrene after blocking. […] The phage clones were identified by DNA sequencing and the corresponding titer counts calculated. For comepetetive binding against free polypeptide or nanoparticles and to obtain a dose-response curve, 10^8 TU/ml of phage and its free polypeptide in different concentrations or nanoparticles were mixed, exposed to articular cartilage and titer counts determined. […]
Based on affinity selection and the binding assays reported herein, the 6-mer polypeptide insert WYRGRL (SEQ ID NO:1) of clone C1-3 as well as its scrambled mismatch YRLGRW (SEQ ID NO:6) were synthesized on solid resin using standard Fmoc chemistry. […] A dose-response curve was determined by serial dilutions of the polypeptide ranging from 50 nM to 10 μM and mixing them with 10^8 TU/ml of phage. […]

MMP-2 = biological target: T1, MMP-2; experiment: MMP-2 zymography; format: biochemical

IC50 (articular cartilage; polypeptide 50 nM to 10 μM mixed with 10^8 TU/ml phage C1-3, estimated from curve in FIG. 2, read-out: IC50, inhibition of cartilage binding of phage C1-3) [nM] | decrease of titer counts of recovered phage over the dose-response curve (articular cartilage; polypeptide increased from 50 nM to 10 μM, FIG. 2) | inhibition of MMP-2 activity (MMP-2; equimolar amount of trTIMP-3) | activity of the purified protein (MMP-2; inferred from MMP-2 zymography at equimolar amount) [%] | Molecule | decrease of phage titers versus control without polypeptide (articular cartilage)
– | – | – | – | YRLGRWC (Ac-YRLGRWC) [scrambled mismatch polypeptide of WYRGRL with C-terminal cysteine, reference compound] | did not result in a significant decrease in phage titer
~200 | two orders of magnitude | – | – | WYRGRLC [synthetic polypeptide: insert WYRGRL of clone C1-3 with a cysteine added to the C-terminus] | ~100 fold
– | – | completely inhibits | ~100 | trTIMP-3: fusion protein of N-TIMP-3 (Cys24 to Asn 143) containing WYRGRL at the C-terminus (protein) CTCSPSHPQDAFCNSDIVIRAKVVGKKLVKEGPFGTLVYTIKQMKMYRGFSKMPHVQYIHTEASESLCGLKLEVNKYQYLLTGRVYEGKMYTGLCNFVERWDHLTLSQRKGLNYRYHLGCGGGWYRGRL | –
